# According to article PMC10387993, “New pyrimidine-N-β-D-glucosides: synthesis, biological evaluation, and molecular docking investigations” (Turkish Journal of Chemistry, 2023):
# Read-outs that look alike come from different tables or passages of the source.
# Columns and labels:
# Assay type in all cases: cell-based
# A549 = test: cells; conditions: Homo sapiens; for LC50 (concentration causing 50% net cell loss): A549, read-out: LC50; for GI50 / IC50 / IC (total growth inhibition): A549, MTT; for IC50: read-out: IC50; for IC (total growth inhibition): read-out: TGI
# Outline: (§1)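 Seed ~1 × 10^4 cells/well; final 200 μL. Add MTT in phenol-red-free RPMI 1640, 4 h. Solubilise formazan in DMSO + Sorenson's buffer, 30 min RT. Read 560/690 nm. ≥3 repeats.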
# C6 (Rat brain glioma) = test: cells; conditions: Rattus norvegicus; for LC50 (concentration giving 50% net cell loss relative to time zero): read-out: LC50; for GI50 / IC50 / IC (total growth inhibition): C6, MTT; for IC50: read-out: IC50; for IC (total growth inhibition): read-out: TGI
# Outline: as §1
# HT29 = test: cells; conditions: Homo sapiens; for LC50 (concentration giving 50% net cell loss relative to time zero): HT-29, read-out: LC50; for GI50 / IC50 / IC (total growth inhibition): HT-29, HT29, MTT; for IC50: read-out: IC50; for IC (total growth inhibition): read-out: TGI
# Outline: as §1
# HeLa = test: cells; conditions: Homo sapiens; for GI50 / IC50 / IC (total growth inhibition): MTT; for IC50: read-out: IC50; for IC (total growth inhibition): read-out: TGI; for LC50 (concentration causing 50% net cell loss): read-out: LC50
# Outline: as §1
# Hep3B = test: cells; conditions: Homo sapiens; for GI50 / IC50 / IC (total growth inhibition): MTT; for IC50: read-out: IC50; for IC (total growth inhibition): read-out: TGI; for LC50 (concentration causing 50% net cell loss relative to time zero): read-out: LC50
# Outline: as §1
# MCF7 = test: cells; conditions: Homo sapiens; for LC50 (concentration causing 50% net cell loss relative to time zero): MCF7, read-out: LC50; for GI50 / IC50 / IC (total growth inhibition): MCF7, MTT; for IC50: read-out: IC50; for IC (total growth inhibition): read-out: TGI
# Outline: as §1
# [1] = LDH cytotoxic activity assay, C6; conditions: rat, C6 glioma cells; for cytotoxicity at 24 h, 25 μg/mL: C6, 25 μg/mL; for cytotoxicity at 24 h, 50 μg/mL: C6, 50 μg/mL; for cytotoxicity at 24 h, 75 μg/mL: C6, 75 μg/mL; for cytotoxicity at 24 h, 100 μg/mL: C6, 100 μg/mL
# Outline: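 Cells grown in DMEM or RPMI 1640 with 10% FBS were seeded at about 5 × 10^3 per well in triplicate. They were exposed to 25, 50, 75 and 100 μg/mL compound for 24 h at 37 °C, 5% CO2, and LDH release was measured by absorbance at 492–630 nm.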
# [2] = tested on: A. actinomycetemcomitans ATCC 33384; test: Microdilution MIC assay; conditions: Aggregatibacter actinomycetemcomitans, ATCC33384; A. actinomycetemcomitans ATCC 33384, 24 h at 35 °C
# Method: (§2) MIC values of the compounds against bacterial strains were determined on the basis of a microwell dilution method. […] […]. Growth of microorganisms was determined visually after incubation for 24 h at 35 °C. The lowest concentration at which there was no visible growth (turbidity) was taken as the MIC.
# E. coli ATCC 25922 = test: Microdilution MIC assay; conditions: Escherichia coli, ATCC25922; E. coli ATCC 25922, 24 h at 35 °C
# Method: as §2
# E. coli ESBL ATCC 35218 = test: Microdilution MIC assay; conditions: Escherichia coli, ATCC35218; E. coli ESBL ATCC 35218, 24 h at 35 °C
# Method: as §2
# E. faecalis ATCC 29212 = test: Microdilution MIC assay; conditions: Enterococcus faecalis, ATCC29212, 24 h, E. faecalis ATCC 29212, 24 h at 35 °C; read-out: MIC
# Method: as §2
# [3] = tested on: E. faecalis VRE ATCC 19433; test: Microdilution MIC assay; conditions: Enterococcus faecalis; E. faecalis VRE ATCC 19433, 24 h at 35 °C
# Method: as §2
# [4] = tested on: P. aeruginosa AGME ATCC 27853; test: Microdilution MIC assay; conditions: Pseudomonas aeruginosa, ATCC27853; P. aeruginosa AGME ATCC 27853, 24 h at 35 °C
# Method: as §2
# [5] = tested on: S. aureus MRSA ATCC 46300; test: Microdilution MIC assay; conditions: Staphylococcus aureus; S. aureus MRSA ATCC 46300, 24 h at 35 °C; read-out: MIC
# Method: as §2
# [6] = tested on: S. aureus MSSA ATCC 29213; test: Microdilution MIC assay; conditions: Staphylococcus aureus, 24 h, S. aureus MSSA ATCC 29213, 24 h at 35 °C; read-out: MIC
# Method: as §2
# S. gordonii NCTC 7870 = test: Microdilution MIC assay; conditions: Streptococcus gordonii, NCTC7870; S. gordonii NCTC 7870, 24 h at 35 °C
# Method: as §2
# S. mutans ATCC 35668 = test: Microdilution MIC assay; conditions: S. mutans ATCC 35668, 24 h at 35 °C
# Method: as §2
# [7] = Streptococcus mutans, ATCC35668, 24 h, read-out: MIC
SMILES,LC50 (concentration causing 50% net cell loss) (A549) [µg/mL],GI50 (A549) [µg/mL],IC50 (A549) [µg/mL],IC (total growth inhibition) (A549) [µg/mL],LC50 (concentration giving 50% net cell loss relative to time zero) (C6 (Rat brain glioma)) [µg/mL],GI50 (C6 (Rat brain glioma)) [µg/mL],IC50 (C6 (Rat brain glioma)) [µg/mL],IC (total growth inhibition) (C6 (Rat brain glioma)) [µg/mL],LC50 (concentration giving 50% net cell loss relative to time zero) (HT29) [µg/mL],GI50 (HT29) [µg/mL],IC50 (HT29) [µg/mL],IC (total growth inhibition) (HT29) [µg/mL],GI50 (HeLa) [µg/mL],IC50 (HeLa) [µg/mL],IC (total growth inhibition) (HeLa) [µg/mL],LC50 (concentration causing 50% net cell loss) (HeLa) [µg/mL],GI50 (Hep3B) [µg/mL],IC50 (Hep3B) [µg/mL],IC (total growth inhibition) (Hep3B) [µg/mL],LC50 (concentration causing 50% net cell loss relative to time zero) (Hep3B) [µg/mL],also measured
"Cc1ccccc1-c1cc(-c2ccncc2)nc(N[C@@H]2O[C@H](CO)[C@@H](O)[C@H](O)[C@H]2O)n1 [Compound 3, N-[4-(2-methylphenyl)-6-pyridin-4-ylpyrimidin-2-yl]-β-D-glucopyranosylamine]",> 500,6.49,> 500,> 500,252,4.37,33.5,17.4,> 500,2.22,78.4,230,> 500,> 500,> 500,> 500,3.83,> 500,> 500,> 500,"LC50 (concentration causing 50% net cell loss relative to time zero) (MCF7): > 500 µg/mL; GI50 (MCF7): 2.23 µg/mL; IC50 (MCF7): > 500 µg/mL; IC (total growth inhibition) (MCF7): > 500 µg/mL; cytotoxicity at 24 h, 25 μg/mL [1]: 25.3%; cytotoxicity at 24 h, 50 μg/mL [1]: 32.1%; cytotoxicity at 24 h, 75 μg/mL [1]: 74%; cytotoxicity at 24 h, 100 μg/mL [1]: 99.7%; MIC [2]: 500 µg/mL; MIC (E. coli ATCC 25922): > 1000 µg/mL; MIC (E. coli ESBL ATCC 35218): > 1000 µg/mL; MIC (E. faecalis ATCC 29212): > 1000 µg/mL; MIC [3]: > 1000 µg/mL; MIC [4]: > 1000 µg/mL; MIC [5]: 1000 µg/mL; MIC [6]: 1000 µg/mL; MIC (S. gordonii NCTC 7870): 1000 µg/mL; MIC (S. mutans ATCC 35668; [7]): 500 µg/mL"
"Cc1cccc(-c2cc(-c3ccccn3)nc(N[C@@H]3O[C@H](CO)[C@@H](O)[C@H](O)[C@H]3O)n2)c1 [Compound 4, N-[4-(3-methylphenyl)-6-pyridin-2-ylpyrimidin-2-yl]-β-D-glucopyranosylamine]",> 500,19.4,> 500,> 500,77.4,8.13,27.8,20.5,> 500,4.63,26.7,31.9,21.9,52.2,46,116,4.4,65.5,67.8,> 500,"LC50 (concentration causing 50% net cell loss relative to time zero) (MCF7): > 500 µg/mL; GI50 (MCF7): 3.44 µg/mL; IC50 (MCF7): > 500 µg/mL; IC (total growth inhibition) (MCF7): > 500 µg/mL; cytotoxicity at 24 h, 25 μg/mL [1]: 22.1%; cytotoxicity at 24 h, 50 μg/mL [1]: 49.3%; cytotoxicity at 24 h, 75 μg/mL [1]: 68.9%; cytotoxicity at 24 h, 100 μg/mL [1]: 89.2%; MIC [2]: 250 µg/mL; MIC (E. coli ATCC 25922): > 1000 µg/mL; MIC (E. coli ESBL ATCC 35218): > 1000 µg/mL; MIC (E. faecalis ATCC 29212): 250 µg/mL; MIC [3]: > 1000 µg/mL; MIC [4]: > 1000 µg/mL; MIC [5]: 500 µg/mL; MIC [6]: 250 µg/mL; MIC (S. gordonii NCTC 7870): 250 µg/mL; MIC (S. mutans ATCC 35668): 125 µg/mL; MIC (S. mutans ATCC 35668; [7]): 62.5 to 125 µg/mL"
